What was measured:
[1] = test system: Keap1-dependent Nrf2 ubiquitination; experiment: Keap1-dependent Nrf2 ubiquitination in 293T cells; format: cell-based, human
Method: Alkylation of the BTB domain of Keap1 by covalent modifiers contributes to the disruption of the Keap1-Cul3 interactions, leading to Nrf2 activation. Next, we investigated the effect of PBA on the modulation of Nrf2 ubiquitination as Nrf2 stability is controlled by ubiquitin-mediated proteasomal degradation. First, 3X Flag-Keap1, Myc-Nrf2 and Ub plasmids were transfected into 293T cells and then, the cells were treated with 30 μM PBA for 20 h and 5 μM MG132 for another 4 h. Cell lysates were pulled down using anti-Myc beads, and immunopurified Nrf2 was examined for the occurrence of Ub by western blotting. […] As shown in Figure 6E-F, PBA could disrupt the interaction of Keap1 and Cul3 in WT-Keap1 cells, while the disruption was blocked in the Cys77S and Cys434-Keap1 mutant cells.
Figure 6 PBA suppresses Keap1-mediated ubiquitination of Nrf2 by disrupting the interaction between Cul3 and Keap1. (A and B) PBA suppressed Nrf2 ubiquitination in a Keap1-Cys77 and C434-dependent manner. First, 293T cells were transfected with WT-Keap1 or C77S and C434S-Keap1, Myc-Nrf2, and Ub plasmids for 24 h and treated with 30 μM PBA. The cell lysates were immunoprecipitated using anti-Myc beads, and the ubiquitination level was evaluated using the anti-Ub antibody. (C and D) PBA induced the dissociation of the Nrf2-Keap1 complex. Then, 293T cells were cotransfected with WT-Keap1 and Flag-Nrf2 plasmids for 24 h and treated with 30 μM PBA for 12 h. The cell lysates were immunoprecipitated with the anti-Flag antibody, and the level of Nrf2 was assessed using the anti-Nrf2 antibody. (E and F) PBA disrupted the interaction between Cul3 and Keap1. […] The cell lysates were immunoprecipitated with the anti-Flag antibody, and the level of Cul3 was measured using the anti-Cul3 antibody. #p < 0.05, ##p < 0.01, ###p < 0.001, the control vs DMSO; *p < 0.05,**p < 0.01, ***p < 0.001, PBA or tBHQ vs DMSO. […] Cell viability was measured by MTT assays. #p < 0.05, ###p < 0.001, the control vs OGD/R; **p < 0.01, ***p < 0.001, OGD/R+PBA vs OGD/R.

NLRP3 inflammasome = experiment: OGD/R-induced NLRP3 inflammasome activation in primary cardiomyocytes; format: cell-based, mouse; conditions: OGD 3 h, reperfusion 18 h, dose-dependent
Method: The heart was removed from the neonatal C57BL/6 mice and cut into 1 mm^3 pieces in ice […] buffer. The tissues were digested with the mixture of 0.125% trypsin (Gibco, 15090-046) and 0.1% type II collagenase (Gibco, 17101-015) 6 min at 37 °C for three times until the tissues were completely digested. The cells were harvested and seeded in a dish. After 90 min of incubation, the cell culture medium was collected and centrifuged. The centrifuged cardiomyocytes were harvested, seeded on 0.1 % gelatin-coated culture plates with DMEM containing 10% FBS and […] Brdu, and incubated in a 37°C incubator.
Total protein was isolated from H9c2 cells, primary mouse cardiomyocytes, RAW264.7 cells and heart tissue using 1X RIPA buffer containing phosphatase and proteinase inhibitors at 4 °C. […] After the membranes was washed by TBST buffer for three times, they were incubated with horseradish peroxidase (HRP)-conjugated secondary mouse or rabbit antibodies (1:3,000 dilution) at room temperature (RT) for 1.5 h and then detected by SuperEnhanced chemiluminescence (ECL) reaction reagents (GBCBIO Technologies Inc., Guangzhou, Guangdong, China). […] After letting the membranes stand for 1-2 min, the bands of the respective proteins were detected with the exposure time of 10 ~60 s.

Keap1 C273S = biological target: T1, Keap1 C273S (Homo sapiens, UniProt Q14145, C273S); experiment: ITC titration of PBA with Keap1-C273S; format: binding; conditions: 25 ℃
T1 construct: His (N); made in house; host or cells: E. coli BL21 (DE3)
T1 sequence (Q14145 whole entry C273S): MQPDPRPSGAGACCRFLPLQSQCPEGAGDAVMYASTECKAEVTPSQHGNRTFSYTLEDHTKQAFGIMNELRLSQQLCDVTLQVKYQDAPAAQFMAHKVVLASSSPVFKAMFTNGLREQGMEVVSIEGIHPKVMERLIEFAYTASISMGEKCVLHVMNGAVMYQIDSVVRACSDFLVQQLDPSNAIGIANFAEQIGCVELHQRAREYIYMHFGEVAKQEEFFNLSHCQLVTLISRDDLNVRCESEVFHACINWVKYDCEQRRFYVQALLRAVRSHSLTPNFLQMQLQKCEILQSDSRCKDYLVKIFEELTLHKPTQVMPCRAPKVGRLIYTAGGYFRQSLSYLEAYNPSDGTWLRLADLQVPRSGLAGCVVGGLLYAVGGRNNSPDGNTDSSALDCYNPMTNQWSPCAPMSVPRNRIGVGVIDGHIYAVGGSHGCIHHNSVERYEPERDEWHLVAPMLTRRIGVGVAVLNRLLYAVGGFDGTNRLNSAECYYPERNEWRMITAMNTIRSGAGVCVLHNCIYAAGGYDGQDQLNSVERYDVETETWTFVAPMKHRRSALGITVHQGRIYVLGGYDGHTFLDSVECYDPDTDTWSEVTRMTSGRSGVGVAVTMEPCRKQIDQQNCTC
Method: (§1) The Keap1 was amplified by PCR using a human cDNA library, and was subcloned into the vector pET28-TEV, which contained one tobacco etch virus (TEV) protease cleavage site at the upstream multiple cloning site. The protein was expressed in E. coli BL21 (DE3) cells and incubated at 37 °C until the OD600 value reached 0.6, using 0.2 mM isopropyl β-D-1-thiogalactopyranoside (IPTG) overnight induction at 18 °C. The cells were isolated by centrifugation, resuspended in ice-cold lysis buffer and lysed by cryogenic overpressure cell breaker at 1,200 psi. The lysates were centrifuged for 60 min at 14,000 rpm to obtain the supernatant. Gravity flow purification of Keap1 protein was obtained at room temperature using 1 mL of Ni-NTA and eluted in buffer containing 250 mM imidazole, followed by 1 mL of HiTrap QHP for the second step purification. The final protein was purified and validated by Superdex 200 10/300GL resin.
(§2) The mutant plasmid DNA was obtained by PCR. The PCR products were cleaved by DpnI restriction enzymes. The restriction endonuclease-cleaved mixture was subsequently transformed into E. coli DH5α. Colonies were evaluated by colony PCR and sequenced. The mutant plasmid was transformed into E. coli BL21 (DE3) after successful sequencing. The steps for expression and purification of all recombinants were described above.
(§3) Isothermal calorimetry (ITC) titration experiments were performed at 25 °C. WT Keap1, Keap1 mutants and PBA were dissolved in binding buffer (40 mM Tris-HCl pH 8.0, 250 mM NaCl). In a typical experiment, 60 μL of PBA (1 mM) was injected 19 times at 2-min intervals from a stirring syringe into the sample cell containing 300 μL of WT protein or mutants (30 μM). The first injection was 0.4 μL of PBA, and the subsequent 18 injections were 2 μL each time. The site-binding models were determined by using MicroCal Origin software.

Keap1 C434S = biological target: T2, Keap1 C434S (Homo sapiens, UniProt Q14145, C434S); experiment: ITC titration of PBA with Keap1-C434S; format: binding; conditions: 25 ℃
T2 construct: His (N); made in house; host or cells: E. coli BL21 (DE3)
T2 sequence (Q14145 whole entry C434S): as the sequence (Q14145 whole entry C273S) above, with S273C, C434S counted along it
Method: as §1, §2, §3

`C=C(COC(=O)C=Cc1ccc(O)c(O)c1)C(O)COC1OC(CO)C(O)C(O)C1O` (centres unmarked) [PBA, pubescenoside A] was tested, and the “Keap1-dependent Nrf2 ubiquitination” value ([1]; WT Keap1, 30 μM PBA 20 h, 5 μM MG132 4 h) was “significantly suppressed”, the “protection of Nrf2 from ubiquitination with mutant Keap1” value ([1]; mutant Cys77S and Cys434S-Keap1 vectors) was “unable to protect Nrf2 from ubiquitination” and the “OGD/R-induced inflammasome activation (NLRP3, cleaved-caspase1, mature IL-1β)” value (NLRP3 inflammasome) was “substantially inhibited”. For the same compound, the Kd (Keap1 C273S) was 3.8 µM, the “T△S” value (Keap1 C273S) was 3.53 ± 0.00 kcal/mol and the “△G” value (Keap1 C273S) was -7.40 ± 0.00 kcal/mol. For the same compound, the “△H” value (Keap1 C273S) was -3.87 ± 0.271 kcal/mol, the Kd (Keap1 C434S) was 13.9 µM and the “T△S” value (Keap1 C434S) was 1.87 ± 0.00 kcal/mol. For the same compound, the “△G” value (Keap1 C434S) was -6.63 ± 0.00 kcal/mol and the “△H” value (Keap1 C434S) was -4.76 ± 0.367 kcal/mol.
